Data taken from paper PMC3908613 (Bioscience Reports, 2014).

What was measured:
PLK1 = settings: cited from earlier work
Slk = biological target: T1, Slk (Mus musculus, UniProt O54988); experiment: Activity of Slk immunoprecipitated from BMDC; format: biochemical, C57BL/6 mice; settings: immunoprecipitates treated with 1 μM D1870; resting and LPS-stimulated DC
T1 construct: Mst1, Lok and Slk were immunoprecipated from 150 μg, 850 μg and 1 mg of cell lysates respectively; endogenous in cells; host or cells: mouse bone-marrow-derived dendritic cells (BMDC), immunoprecipitate
Method: Equal numbers of BMDC (1×10^7/dish) were incubated in 15 cm dishes in RPMI supplemented with 0.3% FCS for 3 h at 37°C then incubated for 30 min with or without 50 ng/ml LPS. The cells were washed once in cold PBS and lysed in the lysis buffer described above. Mst1, Lok and Slk were immunoprecipated from 150 μg, 850 μg and 1 mg of cell lysates respectively with 2 μg of anti-MST1 (Cell Signalling), anti-Slk (Bethyl) or anti-Lok (Bethyl) or control IgG (Santa Cruz Biotech) coupled to G-protein Sepharose (Amersham) for 1 h at 4°C. […] Kinase assays were performed as described above.
A combination of SILAC and nucleotide acyl
Alexander J. EDGAR*, Matthias TROST†, Colin WATTS*1 and Rossana ZARU*1
*Division of Cell Signalling and Immunolog y, University of Dundee, Dow Street, Dundee DD1 5EH, U.K., and †MRC Protein Phosphor ylation and Ubiquitylation Unit, College of Life Sciences, University of Dundee, Dow Street, Dundee DD1 5EH, U.K.
Supplementary Table S1 is available at http://www.bioscirep.
Mst1, Lok and Slk activities in DC either unstimulated or stimulated with LPS (50 ng/ml) for 30 min at 37 ◦ C. Immuno- […]
of triplicate stimulations. *P < 0.05, **P < 0.01, ***P < 0.001, ns not signiﬁcant.
1 Correspondence may be addressed to either of these authors (email c.watts@dundee.ac.uk or r.zaru@dundee.ac.uk). […]

GST-Mst1 = biological target: T2, GST-Mst1 (Homo sapiens, UniProt Q13043); experiment: Kinase assay for recombinant Mst1; format: biochemical; settings: 100 μM ATP, myelin basic protein substrate
T2 construct: GST; purchased DSTT
T2 sequence (Q13043 1-487): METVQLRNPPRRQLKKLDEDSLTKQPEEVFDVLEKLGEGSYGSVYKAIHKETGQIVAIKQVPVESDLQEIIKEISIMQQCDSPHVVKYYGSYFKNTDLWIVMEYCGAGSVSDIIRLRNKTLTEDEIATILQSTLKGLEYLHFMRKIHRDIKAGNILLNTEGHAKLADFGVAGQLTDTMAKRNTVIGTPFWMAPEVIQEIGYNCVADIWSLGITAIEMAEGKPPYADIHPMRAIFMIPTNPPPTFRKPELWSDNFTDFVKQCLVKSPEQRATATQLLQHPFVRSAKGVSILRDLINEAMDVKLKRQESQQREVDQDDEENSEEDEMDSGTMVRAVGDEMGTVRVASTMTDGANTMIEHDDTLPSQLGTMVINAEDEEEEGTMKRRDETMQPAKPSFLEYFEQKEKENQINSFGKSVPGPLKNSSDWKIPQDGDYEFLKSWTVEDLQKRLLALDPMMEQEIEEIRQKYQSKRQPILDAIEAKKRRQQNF
Method: The kinase reaction for Lok and Slk was supplemented with 12.5 mM sodium glycerophosphate and 0.25 mM sodium orthovanadate. The reactions were incubated for 15–20 min at 30°C then terminated and analysed as described previously [14].

Rsk2 = biological target: T3, Rsk2 (Mus musculus, UniProt P18654); experiment: Desthiobiotin-ATP probe capture on streptavidin beads, Western blot; format: binding, C57BL/6 mice; settings: 10 μM inhibitor, DC lysate
T3 construct: recovered on streptavidin beads following desthiobiotin-ATP labelling of DC lysates including Rsk2, Erk1/2 and p38; endogenous in cells; host or cells: mouse spleen-derived dendritic cells (SDC), lysate
Method: SDC were cultured for at least 14 days in RPMI (without arginine and lysine, custom-made by Biosera) containing 10% dialysed FCS (Hyclone) supplemented with 84 mg/l of L-arginine (Sigma) and 40 mg/l L-lysine (Sigma) for the ‘light’ medium or 84 mg/l of L-arginine ^13C6 or ^13C10 and 40 mg/l L-lysine ^13C6 (Cambridge Isotope Laboratory) for the ‘heavy’ medium. Equal numbers (2×10^7) of ‘light’ or ‘heavy’ labelled SDCs were incubated in RPMI containing 0.5% FCS for 3 h in 15 cm dishes. The cells were lysed in the lysis buffer provided in the kit (Pierce). […] Labelling with the desthiobiotin ATP probe, and precipitation with streptavidin beads were performed according to the manufacturer's instructions (Pierce kinase enrichment kit or ActivX™). Equal amount of streptavidin precipitates were separated by electrophoresis as described above and probed with antibodies against Rsk2, Lok (Bethyl), Slk (Bethyl), PLK1 (Calbiochem), p38, Erk2 and Mst1 (from Cell Signaling).

BMDC = experiment: FITC-dextran uptake (macropinocytosis) by BMDC; format: cell-based, C57BL/6 mice; settings: LPS 50 ng/ml, FITC-dextran 1 mg/ml; Akt-i at 1 μM
Method: DCs were generated from the bone marrow or the spleen of C57BL/6 mice as previously described. Briefly, bone marrow cells were cultured for 7 days at 37°C, 5% (v/v) CO2 in complete RPMI medium supplemented with 10 ng/ml recombinant granulocyte–macrophage colony-stimulating factor (GM-CSF; Peprotech). Spleen cells were cultured for 14 days at 37°C, 5% CO2 in complete RPMI containing 10 ng/ml GM-CSF and 1 ng/ml TGFβ (transforming growth factor-β; R&D Systems). NIH3T3 cells (European Cell Culture Collection) were cultured in DMEM (Dulbecco's modified Eagle's medium) supplemented with glutamine, penicillin, streptomycin and 10% (v/v) calf serum (Invitrogen).
FITC-dextran uptake was measured as described. […] In some experiments, cells were pre-treated with 1 μM Akt-i (Merck) for 30 min. Cells were left unstimulated or were stimulated with 50 ng/ml LPS for 20 min at 37°C followed by the addition of 1 mg/ml FITC dextran (Invitrogen) for 10 min at 37°C. Cells were washed four times at 4°C in PBS supplemented with 2% (v/v) FCS (foetal calf serum) and then stained with APC (allophycocyanin)-labelled anti-CD11c antibody (BD biosciences). FITC dextran uptake was measured on an FACS Calibur (BD biosciences).

T3 sequence (P18654 whole entry): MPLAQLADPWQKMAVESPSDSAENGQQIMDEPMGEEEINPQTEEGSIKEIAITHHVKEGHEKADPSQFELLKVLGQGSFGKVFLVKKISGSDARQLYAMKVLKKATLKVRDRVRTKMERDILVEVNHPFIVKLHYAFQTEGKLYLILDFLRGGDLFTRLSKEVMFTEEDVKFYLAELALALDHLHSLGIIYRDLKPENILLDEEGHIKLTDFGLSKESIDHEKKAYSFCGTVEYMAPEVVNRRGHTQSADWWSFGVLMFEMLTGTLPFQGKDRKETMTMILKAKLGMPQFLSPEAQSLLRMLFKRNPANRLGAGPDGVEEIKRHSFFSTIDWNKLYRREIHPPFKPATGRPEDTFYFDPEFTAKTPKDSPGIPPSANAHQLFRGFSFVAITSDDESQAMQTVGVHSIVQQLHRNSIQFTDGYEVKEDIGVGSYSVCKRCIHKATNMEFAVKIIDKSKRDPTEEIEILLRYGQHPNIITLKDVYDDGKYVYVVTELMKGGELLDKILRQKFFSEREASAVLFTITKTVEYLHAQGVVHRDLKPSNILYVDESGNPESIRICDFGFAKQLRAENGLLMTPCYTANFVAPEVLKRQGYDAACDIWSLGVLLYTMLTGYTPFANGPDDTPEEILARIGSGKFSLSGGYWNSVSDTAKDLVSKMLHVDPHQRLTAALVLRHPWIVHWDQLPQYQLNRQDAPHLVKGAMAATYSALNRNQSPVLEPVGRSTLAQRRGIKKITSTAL
T1 sequence (O54988 whole entry): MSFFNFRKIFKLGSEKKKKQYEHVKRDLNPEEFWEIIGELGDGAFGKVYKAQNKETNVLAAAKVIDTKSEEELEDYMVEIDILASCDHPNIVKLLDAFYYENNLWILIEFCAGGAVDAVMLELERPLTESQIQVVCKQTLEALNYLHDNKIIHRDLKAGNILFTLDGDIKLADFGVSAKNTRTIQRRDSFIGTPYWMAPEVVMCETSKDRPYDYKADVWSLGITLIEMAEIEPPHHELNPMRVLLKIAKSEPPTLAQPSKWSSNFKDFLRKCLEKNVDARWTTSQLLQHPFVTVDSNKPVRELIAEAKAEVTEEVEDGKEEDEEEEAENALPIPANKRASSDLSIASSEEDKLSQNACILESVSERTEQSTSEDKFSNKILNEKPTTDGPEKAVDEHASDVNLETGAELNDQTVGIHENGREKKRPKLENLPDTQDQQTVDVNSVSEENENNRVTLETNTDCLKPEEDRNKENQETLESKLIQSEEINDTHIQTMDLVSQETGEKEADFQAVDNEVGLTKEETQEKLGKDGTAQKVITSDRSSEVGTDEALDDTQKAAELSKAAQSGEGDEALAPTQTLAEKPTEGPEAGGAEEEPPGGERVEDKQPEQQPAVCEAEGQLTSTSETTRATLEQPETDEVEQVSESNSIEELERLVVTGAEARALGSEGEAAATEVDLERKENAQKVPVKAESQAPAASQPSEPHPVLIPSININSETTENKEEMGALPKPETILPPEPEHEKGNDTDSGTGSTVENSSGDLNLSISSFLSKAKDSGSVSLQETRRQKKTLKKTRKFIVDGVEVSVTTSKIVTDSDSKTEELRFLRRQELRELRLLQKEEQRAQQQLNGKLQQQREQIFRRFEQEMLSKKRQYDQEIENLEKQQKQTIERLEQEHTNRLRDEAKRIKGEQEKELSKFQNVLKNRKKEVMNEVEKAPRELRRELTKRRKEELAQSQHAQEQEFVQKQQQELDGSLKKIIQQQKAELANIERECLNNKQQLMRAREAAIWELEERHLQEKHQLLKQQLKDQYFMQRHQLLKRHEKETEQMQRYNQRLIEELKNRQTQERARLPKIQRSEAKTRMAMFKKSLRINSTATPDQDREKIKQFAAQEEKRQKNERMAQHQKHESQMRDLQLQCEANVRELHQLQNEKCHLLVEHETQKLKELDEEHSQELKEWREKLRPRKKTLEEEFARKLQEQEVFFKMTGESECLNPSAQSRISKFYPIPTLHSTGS

For CC(C)CCN1c2nc(Nc3cc(F)c(O)c(F)c3)ncc2N(C)C(=O)C1C (centres unmarked) [D1870, BI-D1870], the IC50 (PLK1) is given as […], the “kinase activity of Slk immunoprecipitated from DC” value (Slk) is given as “significantly blocked” and the IC50 (GST-Mst1) is given as about 0.3 µM. The “capture of Rsk2 on streptavidin beads” value (Rsk2) was “blocked” and the LPS-mediated dextran uptake (BMDC) was “completely blocked”.
